Earlier results, collected in paper PMC5937704 (Biochemistry, 2018).

Columns and labels:
[1] = test system: bromodomain 2 (BD2) of TAF1
[2] = test system: bromodomain 1 (BD1) of TAF1

CCOC(=O)Nc1cc(-c2ccc(C)c(NS(C)(=O)=O)c2)nn2c(C)nnc12 [BSP, Bromosporine]
affinity for BD2 of TAF1 [1]: nanomolar affinity | affinity for BD1 of TAF1 [2]: significantly weaker (micromolar) affinity
